Source: patent publication US11040987B2 (TenNor Therapeutics Limited, priority 2019, dated 2021)
Values after ≈ are worked out from the molar mass of the structure shown. Where two headings read alike, the source gives them in different places.

Columns and labels:
IMP-1 = molecular target: T1, IMP-1 (Serratia marcescens, UniProt P52699); test: β-lactamase inhibition, spectrophotometric assay of nitrocefin hydrolysis; type: biochemical; conditions: class B β-lactamase, 10 μM ZnSO4; 200 μM nitrocefin, 25° C., 2 hours; read-out: IC50 IMP-1
T1 construct: made in house
T1 sequence (P52699 19-246, looked up, species assumed): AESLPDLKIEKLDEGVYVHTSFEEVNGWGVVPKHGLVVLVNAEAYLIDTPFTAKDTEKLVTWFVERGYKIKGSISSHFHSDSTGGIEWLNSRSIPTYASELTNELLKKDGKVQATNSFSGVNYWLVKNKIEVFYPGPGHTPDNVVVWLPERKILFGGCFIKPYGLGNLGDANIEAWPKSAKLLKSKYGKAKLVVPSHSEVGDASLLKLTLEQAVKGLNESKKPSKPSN
Source text: (§1) Hydrolytic inactivation of the β-lactam antibiotics by β-lactamases is the most widespread drug resistant mechanism and the most challenge clinically among Gram-negative bacterial pathogens. Based on the amino acid sequences, the β-lactamases are grouped into four classes (Ambler classification), of which A, C and D are serine hydrolases and B encompasses metallo-β-lactamases. The IC50 of selected derivatives disclosed herein (identified with reference to example number) plus six reference β-lactam or β-lactamase inhibitors were determined against 7 representative β-lactamases of various classes in a standard spectrophotometric assay of nitrocefin hydrolysis. The assay is performed in 384-well plate. The seven recombinant β-lactamases AmpC_AB (from A. baumannii), AmpC_PA (from P. aeruginosa), KPC-2, NDM-1, IMP-1, VIM-1 and OXA 24/40) are expressed and purified. The reaction buffer for class A, C and D enzymes is 100 mM Na2HPO4—KH2PO4 (pH 7.1) plus 0.005% Tween-20, and for class B enzymes 10 μM ZnSO4 is added. […] The 50 μL of reaction solution composed of 2 pM of β-lactamase, 200 μM of nitrocefin and series of 3-fold dilutions of test or control compounds are added by Cybio SELMA system into 384-plate and incubated in dark at 25° C. for 2 hours. The OD490 is read in MC SpectraMax Plus384 plate reader.

AmpC_AB = AmpC_AB (Acinetobacter baumannii, UniProt Q6DRA1); test: as above; type: biochemical
Source text: as §1

VIM-1 = molecular target: T2, VIM-1 (Pseudomonas aeruginosa, UniProt A0A0F7KYQ8); test: as above; type: biochemical; conditions: for IC50: class B β-lactamase, 10 μM ZnSO4, 200 μM nitrocefin, 25° C., 2 hours, read-out: IC50 VIM-1
T2 construct: made in house
Source text: as §1

NDM-1 = molecular target: T3, NDM-1 (Klebsiella pneumoniae, UniProt C7C422); test: as above; type: biochemical; conditions: class B β-lactamase, 10 μM ZnSO4; 200 μM nitrocefin, 25° C., 2 hours; read-out: IC50 NDM-1
T3 construct: made in house
T3 sequence (C7C422 29-270, looked up, species assumed): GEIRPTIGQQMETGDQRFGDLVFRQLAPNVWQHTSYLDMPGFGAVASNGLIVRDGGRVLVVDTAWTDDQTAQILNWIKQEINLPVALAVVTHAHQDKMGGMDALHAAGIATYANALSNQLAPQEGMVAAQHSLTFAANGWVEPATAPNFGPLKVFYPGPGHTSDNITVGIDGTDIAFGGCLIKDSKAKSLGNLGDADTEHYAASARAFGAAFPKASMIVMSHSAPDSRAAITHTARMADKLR
Source text: as §1

KPC-2 = molecular target: T4, KPC-2 (Klebsiella pneumoniae, UniProt Q9F663); test: as above; type: biochemical; conditions: class A β-lactamase; 200 μM nitrocefin, 25° C., 2 hours; read-out: IC50 KPC-2
T4 construct: made in house
T4 sequence (Q9F663 25-293, looked up, species assumed): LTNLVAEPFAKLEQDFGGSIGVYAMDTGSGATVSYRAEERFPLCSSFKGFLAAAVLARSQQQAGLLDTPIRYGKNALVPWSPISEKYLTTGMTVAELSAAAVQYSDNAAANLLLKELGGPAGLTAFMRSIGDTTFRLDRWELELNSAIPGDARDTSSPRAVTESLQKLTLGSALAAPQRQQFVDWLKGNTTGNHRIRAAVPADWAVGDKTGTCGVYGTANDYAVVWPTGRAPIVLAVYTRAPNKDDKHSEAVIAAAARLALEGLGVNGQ
Source text: as §1

OXA 24/40 = molecular target: T5, OXA 24/40 (Acinetobacter baumannii, UniProt Q8RLA6); test: as above; type: biochemical
T5 construct: made in house
T5 sequence (Q8RLA6 22-275): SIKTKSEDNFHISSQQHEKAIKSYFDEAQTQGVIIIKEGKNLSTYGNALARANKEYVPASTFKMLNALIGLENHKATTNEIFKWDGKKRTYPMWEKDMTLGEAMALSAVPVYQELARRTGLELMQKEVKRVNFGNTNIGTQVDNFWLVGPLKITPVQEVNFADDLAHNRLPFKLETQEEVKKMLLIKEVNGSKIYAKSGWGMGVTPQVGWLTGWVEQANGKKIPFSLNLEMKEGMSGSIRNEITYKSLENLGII
Source text: as §1

AmpC_PA = molecular target: T6, AmpC_PA (Pseudomonas aeruginosa, UniProt P24735); test: as above; type: biochemical, P. aeruginosa
T6 construct: made in house
T6 sequence (P24735 27-397): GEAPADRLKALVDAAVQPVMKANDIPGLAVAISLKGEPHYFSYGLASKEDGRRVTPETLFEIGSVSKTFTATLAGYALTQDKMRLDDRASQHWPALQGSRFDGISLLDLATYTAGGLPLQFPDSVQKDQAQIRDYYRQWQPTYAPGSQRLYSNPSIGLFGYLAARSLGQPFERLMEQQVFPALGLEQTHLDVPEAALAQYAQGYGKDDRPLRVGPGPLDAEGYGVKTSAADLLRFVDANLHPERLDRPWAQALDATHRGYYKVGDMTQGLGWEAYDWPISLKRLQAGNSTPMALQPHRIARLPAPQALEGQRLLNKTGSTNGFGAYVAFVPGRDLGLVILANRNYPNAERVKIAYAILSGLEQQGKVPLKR
Source text: as §1

A.b TNP 41708 = test: MIC against A. baumannii clinical isolates, alone and in combination with antibiotics; type: cell-based; conditions: for MIC: Acinetobacter baumannii, TNP41708, read-out: MIC A.b TNP 41708
Description: (§2) Minimum inhibitory concentration (MIC) is determined by a broth microdilution method according to the recommendation of the Clinical and Laboratory Standards Institute (CLSI) with minor modification. […] Strains of an ESKAPE panel (E. faecium ATCC 700221, S. aureus ATCC 29213, K. pneumoniae ATCC 43816, A. baumannii ATCC 19606, P. aeruginosa ATCC 27853 and Escherichia coli ATCC 25922) were obtained originally from the American Type Culture Collection (ATCC) and used for MIC determinations of compounds. The bacteria inoculum in the test is […].

A.b TNP 41709 = test: as above; type: cell-based; conditions: for MIC: Acinetobacter baumannii, TNP41709, Compounds alone, read-out: MIC A.b TNP 41709
S. aureus ATCC 29213 = test: MIC determination, broth microdilution, ESKAPE panel; type: cell-based; conditions: Staphylococcus aureus, ATCC29213; iron-depleted cation-adjusted Mueller-Hinton broth, 2,2-dipyridyl 160 μM; 37° C., 18-20 hours; read-out: MIC S. aureus ATCC 29213
Description: as §2

P. aeruginosa ATCC 27853 = test: as above; type: cell-based; conditions: Pseudomonas aeruginosa, ATCC27853; iron-depleted cation-adjusted Mueller-Hinton broth, 2,2-dipyridyl 160 μM; 37° C., 18-20 hours; read-out: MIC P. aeruginosa ATCC 27853
Description: as §2

E. faecium ATCC 700221 = test: as above; type: cell-based; conditions: Enterococcus faecium, ATCC700221; iron-depleted cation-adjusted Mueller-Hinton broth, 2,2-dipyridyl 160 μM; 37° C., 18-20 hours; read-out: MIC E. faecium ATCC 700221
Description: as §2

K. pneumoniae ATCC 43816 = test: as above; type: cell-based; conditions: Klebsiella pneumoniae, ATCC43816; iron-depleted cation-adjusted Mueller-Hinton broth, 2,2-dipyridyl 160 μM; 37° C., 18-20 hours; read-out: MIC K. pneumoniae ATCC 43816
Description: as §2

A. baumannii ATCC 19606 = test: as above; type: cell-based; conditions: Acinetobacter baumannii, ATCC19606; iron-depleted cation-adjusted Mueller-Hinton broth, 2,2-dipyridyl 160 μM; 37° C., 18-20 hours; read-out: MIC A. baumannii ATCC 19606
Description: as §2

[1] = test system: Escherichia coli ATCC 25922; test: as above; type: cell-based; conditions: ATCC25922, iron-depleted cation-adjusted Mueller-Hinton broth, 2,2-dipyridyl 160 μM, 37° C., 18-20 hours, read-out: MIC E. coli ATCC 25922
Description: as §2

A.b TNP 41704 = test: MIC against A. baumannii clinical isolates, alone and in combination with antibiotics; type: cell-based; conditions: for MIC: Acinetobacter baumannii, TNP41704, Compounds alone, read-out: MIC A.b TNP 41704
[2] = Class C β-lactamase, 200 μM nitrocefin, 25° C., 2 hours, read-out: IC50 AmpC_AB

Row | SMILES | IC50 (IMP-1) [µM] | IC50 (AmpC_AB; [2]) [µM] | IC50 (VIM-1) [µM] | IC50 (NDM-1) [µM] | IC50 (KPC-2) [µM] | IC50 (OXA 24/40) [µM] | IC50 (AmpC_PA) [µM] | also measured
1 | NC(=O)[C@@H]1CC[C@@H]2CN1C(=O)N2OS(=O)(=O)O [Avibactam, reference compound] | > 200 | 2.61 | > 200 | > 200 | – | – | – | –
2 | O=C(O)[C@H]1/C(=C/CO)O[C@@H]2CC(=O)N21 [Clavulanate, reference compound] | > 200 | – | > 200 | > 200 | > 200 | > 200 | > 200 | IC50 (AmpC_AB): > 200 µM
3 | CN(/N=C/[C@@]1(C)[C@H](C(=O)O)N2C(=O)C[C@H]2S1(=O)=O)C(=O)c1ccc(O)c(O)c1Cl [Example 3, (2S,3R,5R)-3-((E)-(2-(2-chloro-3,4-dihydroxybenzoyl)-2-methylhydrazono)methyl)-3-methyl-7-oxo-4-thia-1-azabicyclo[3.2.0]heptane-2-carboxylic acid 4,4-dioxide] | > 200 | 0.72 | > 200 | > 200 | > 200 | 2.3 | 2.42 | –
4 | CN(/N=C/[C@@]1(C)[C@H](C(=O)O)N2C(=O)C[C@H]2S1(=O)=O)C(=O)c1ccc(O)c(O)c1 [Example 7, (2S,3R,5R)-3-((E)-(2-(3,4-dihydroxybenzoyl)-2-methylhydrazono)methyl)-3-methyl-7-oxo-4-thia-1-azabicyclo[3.2.0]heptane-2-carboxylic acid 4,4-dioxide] | > 200 | 0.596 | 58.2 | > 200 | > 200 | 6.03 | 1.52 | activity against VIM-1 of class B (in words) (VIM-1; text summary of Table 4): weak activity
5 | C[C@]1(/C=N/NC(=O)c2cnccn2)[C@H](C(=O)O)N2C(=O)C[C@H]2S1(=O)=O [Example 19, (2S,3R,5R)-3-methyl-7-oxo-3-((E)-(2-(pyrazine-2-carbonyl)hydrazono)methyl)-4-thia-1-azabicyclo[3.2.0]heptane-2-carboxylic acid 4,4-dioxide] | > 200 | 5.76 | > 200 | > 200 | > 200 | 2.49 | 3.68 | –
6 | C[C@]1(/C=N/NC(=O)c2ccc(O)c(O)c2Cl)[C@H](C(=O)O)N2C(=O)C[C@H]2S1(=O)=O [Example 23, (2S,3R,5R)-3-((E)-(2-(2-chloro-3,4-dihydroxybenzoyl)hydrazono)methyl)-3-methyl-7-oxo-4-thia-1-azabicyclo[3.2.0]heptane-2-carboxylic acid 4,4-dioxide] | > 200 | 0.718 | > 200 | > 200 | > 200 | 3.18 | 2.45 | –
7 | C[C@]1(/C=N/OCCNC(=O)c2ccc(O)c(O)c2Cl)[C@H](C(=O)O)N2C(=O)C[C@H]2S1(=O)=O [Example 118, (2S,3R,5R)-3-((E)-((2-(2-chloro-3,4-dihydroxybenzamido)ethoxy)imino)methyl)-3-methyl-7-oxo-4-thia-1-azabicyclo[3.2.0]heptane-2-carboxylic acid 4,4-dioxide] | – | – | – | – | – | – | – | MIC (A.b TNP 41708): > 128 µg/mL; MIC A.b TNP 41708 (A.b TNP 41708; Compounds + meropenem (1:1)): >128 µg/mL; MIC A.b TNP 41708 (A.b TNP 41708; Compounds + sulbactam (1:1)): >128 µg/mL; MIC (A.b TNP 41709): > 128 µg/mL; MIC A.b TNP 41709 (A.b TNP 41709; Compounds + meropenem (1:1)): >128 µg/mL; MIC A.b TNP 41709 (A.b TNP 41709; Compounds + sulbactam (1:1)): >128 µg/mL; MIC (S. aureus ATCC 29213): > 128 µg/mL; MIC (P. aeruginosa ATCC 27853): > 128 µg/mL; MIC (E. faecium ATCC 700221): > 128 µg/mL; MIC (K. pneumoniae ATCC 43816): > 128 µg/mL; MIC (A. baumannii ATCC 19606): > 128 µg/mL; MIC [1]: > 128 µg/mL; MIC (A.b TNP 41704): > 128 µg/mL; MIC A.b TNP 41704 (A.b TNP 41704; Compounds + meropenem (1:1)): 128 µg/mL; MIC A.b TNP 41704 (A.b TNP 41704; Compounds + sulbactam (1:1)): 16 µg/mL
8 | C[C@@H](O)[C@H]1C(=O)N2C(C(=O)O)=C(SCCN=CN)C[C@H]12 [Imipenem, reference compound] | – | – | – | – | – | – | – | MIC (A.b TNP 41708): 32 µg/mL; MIC (A.b TNP 41709): 32 µg/mL; MIC (S. aureus ATCC 29213): < 0.06 µg/mL; MIC (P. aeruginosa ATCC 27853): 1 µg/mL (≈ 3.34 µM); MIC (E. faecium ATCC 700221): > 128 µg/mL; MIC (K. pneumoniae ATCC 43816): 0.5 µg/mL (≈ 1.67 µM); MIC (A. baumannii ATCC 19606): 0.25 µg/mL (≈ 0.835 µM); MIC [1]: 0.25 µg/mL (≈ 0.835 µM); MIC (A.b TNP 41704): 16 µg/mL
9 | C[C@@H](O)[C@H]1C(=O)N2C(C(=O)O)=C(S[C@@H]3CN[C@H](C(=O)N(C)C)C3)[C@H](C)[C@H]12 [Meropenem, reference compound] | – | – | – | – | – | – | – | MIC (A.b TNP 41708): 128 µg/mL; MIC (A.b TNP 41709): 128 µg/mL; MIC (S. aureus ATCC 29213): 0.125 µg/mL (≈ 0.326 µM); MIC (P. aeruginosa ATCC 27853): 0.5 µg/mL (≈ 1.3 µM); MIC (E. faecium ATCC 700221): > 128 µg/mL; MIC (K. pneumoniae ATCC 43816): < 0.06 µg/mL; MIC (A. baumannii ATCC 19606): 1 µg/mL (≈ 2.61 µM); MIC [1]: < 0.06 µg/mL; MIC (A.b TNP 41704): 64 µg/mL
10 | O=C(NC1CCNCC1)[C@@H]1CC[C@@H]2CN1C(=O)N2OS(=O)(=O)O [Relebactam, reference compound] | > 200 | 0.892 | > 200 | > 200 | – | > 200 | – | –
11 | C[C@]1(Cn2ccnn2)[C@H](C(=O)O)N2C(=O)C[C@H]2S1(=O)=O [Tazobactam, reference compound] | > 200 | – | > 200 | > 200 | 90.2 | 123 | – | IC50 (AmpC_AB): 23.8 µM
12 | O=C(NNC(=O)[C@@H]1CC[C@@H]2CN1C(=O)N2OS(=O)(=O)O)[C@@H]1CCCNC1 [Zidebactam, reference compound] | > 200 | 0.248 | > 200 | > 200 | 2.36 | 51 | – | –
